Test results published in patent US10414768B2, “Compounds for treating cystic fibrosis” (CENTRE NATIONAL DE LA RECHERCHE SCIENTIFIQUE (CNRS), priority 2014, dated 2019).

Target: T1, F508del-CFTR (Homo sapiens, UniProt P13569, DEL508-508)
T1 construct: expressed in transfected cells; host or cells: HeLa cells (spTCF-ΔF), selected with Zeocin
Experiment: Iodide (125I) efflux from HeLa cells expressing F508del-CFTR
Assay type: cell-based
Settings: HeLa, activators Fsk 10 μM + Gst 30 μM, relative to VX809 normalized at 100%, untreated cells 3.6%
Method: Pharmacology, chemicals and reagents. The CFTR activator forskolin and potentiator genistein (Illek et al., 1995) were purchased from LC Laboratories (PKC Pharmaceuticals, Woburn, Mass.). We purchased DIDS (5-Isothiocyanato-2-[2-(4-isothiocyanato-2-sulfophenyl)ethenyl]benzene-1-sulfonic acid) and VX809 (3-(6-(1-(2,2-difluorobenzo[d][1,3]dioxol-5-yl)cyclopropanecarboxamido)-3-methylpyridin-2-yl)benzoic acid) from Selleckchem (Houston, USA). Stock solutions of F (10 mM), G (30 mM), CFTRinh-172 (10 mM), VX809 (10 mM), were prepared in DMSO. We prepared stock solution of iminosugars, miglustat and IsoLAB ([1,4-dideoxy-2-hydroxymethyl-1,4-imino-L-threitol]) dissolved in water (100 mM) before further dilution. Methods Cell culture. HeLa cells expressing wild-type CFTR (spTCF-wt) or F508del-CFTR (spTCF-ΔF) were cultured in Dulbecco's modified Eagle's medium+GlutaMAX™-I (Invitrogen) supplemented with 8% (v/v) fetal bovine serum (FBS), 1% (v/v) penicillin/streptomycin and were selected using Zeocin (50 μg/mL). Both cell lines were grown in standard culture conditions (37° C., 5% C02). Cells were plated in 35 mm plastic dishes for whole-cell patch-clamp recordings and western blot analysis and in 96-well plates for cytotoxicity assay. For all cell culture, culture media were renewed every 2 days. Western Blot analysis. Cell lysates (10 mM Tris, 1% Nonidet P-40, 0.5% sodium deoxycholate, pH 7.5) were separated 72 h after seeding for HeLa cells by 5% SDS-PAGE (50 μg of protein/well). After saturation, nitrocellulose membrane was incubated overnight at 4° C. in phosphate-buffered saline, 0.1% Tween 20 with 1 μg/ml mouse anti-CFTR monoclonal antibody (clone MAB3480; Chemicon International, Millipore Bioscience Research Reagents, Temecula, Calif.). After washing, goat peroxidase-conjugated anti-mouse IgG (1:10 000; Sigma-Aldrich) was used as secondary antibody. CFTR was visualized by chemiluminescence with ECL Western blotting detection reagent (GE Healthcare, Buckinghamshire, UK). Iodide efflux. CFTR chloride channel activity was assayed by measuring the rate of iodide (^125I) efflux from living cells. All experiments were performed with a MultiPROBE® IIex robotic liquid handling system (Perkin Elmer Life Sciences, Courtaboeuf, France). At the beginning of each experiment, cells were washed twice with efflux buffer containing (in mM) 136.9 NaCl, 5.4 KCl, 0.3 KH2PO4, 0.3 NaH2PO4, 1.3 CaCl2, 0.5 MgCl2, 0.4 MgSO4, 5.6 glucose and 10 HEPES, pH 7.4. Cells were incubated in efflux buffer containing Na^125I (1 μCi Na^125I/ml, NEN, Boston, Mass.) during 1 h at 37° C., then washed with efflux medium to remove extracellular ^125I. The loss of intracellular ^125I was determined by removing the medium with efflux buffer every 1 min for up to 10 min. The first three aliquots were used to establish a stable baseline in efflux buffer alone. A medium containing the activators of CFTR (Fsk 10 μM+Gst 30 μM) and the appropriate drug was used for the remaining aliquots. Residual radioactivity was extracted with 0.1 N NaOH/0.1% SDS, and determined using a Packard Cobra™ II gamma counter (Perkin Elmer life Sciences, Courtaboeuf, France). The fraction of initial intracellular ^125I lost during each time point was collected and time-dependent rates of ^125I efflux calculated from: ln (^125It1/^125It2)/(t1−t2) where ^125It is the intracellular ^125I at time t, and t1 and t2 successive time points. Curves were constructed by plotting rate of 125I versus time. All comparisons were based on maximal values for the time-dependent rates (k=peak rates, min−1) excluding the points used to establish the baseline (kpeak−kbasal, min^−1), and histograms were presented as percentage of activation. Time dependence. Time dependence of the compounds was assayed by measuring the time necessary for an optimal correction of the protein F508del-CFTR. […]

T1 sequence (P13569 with tags, fused parts or gaps DEL508-508): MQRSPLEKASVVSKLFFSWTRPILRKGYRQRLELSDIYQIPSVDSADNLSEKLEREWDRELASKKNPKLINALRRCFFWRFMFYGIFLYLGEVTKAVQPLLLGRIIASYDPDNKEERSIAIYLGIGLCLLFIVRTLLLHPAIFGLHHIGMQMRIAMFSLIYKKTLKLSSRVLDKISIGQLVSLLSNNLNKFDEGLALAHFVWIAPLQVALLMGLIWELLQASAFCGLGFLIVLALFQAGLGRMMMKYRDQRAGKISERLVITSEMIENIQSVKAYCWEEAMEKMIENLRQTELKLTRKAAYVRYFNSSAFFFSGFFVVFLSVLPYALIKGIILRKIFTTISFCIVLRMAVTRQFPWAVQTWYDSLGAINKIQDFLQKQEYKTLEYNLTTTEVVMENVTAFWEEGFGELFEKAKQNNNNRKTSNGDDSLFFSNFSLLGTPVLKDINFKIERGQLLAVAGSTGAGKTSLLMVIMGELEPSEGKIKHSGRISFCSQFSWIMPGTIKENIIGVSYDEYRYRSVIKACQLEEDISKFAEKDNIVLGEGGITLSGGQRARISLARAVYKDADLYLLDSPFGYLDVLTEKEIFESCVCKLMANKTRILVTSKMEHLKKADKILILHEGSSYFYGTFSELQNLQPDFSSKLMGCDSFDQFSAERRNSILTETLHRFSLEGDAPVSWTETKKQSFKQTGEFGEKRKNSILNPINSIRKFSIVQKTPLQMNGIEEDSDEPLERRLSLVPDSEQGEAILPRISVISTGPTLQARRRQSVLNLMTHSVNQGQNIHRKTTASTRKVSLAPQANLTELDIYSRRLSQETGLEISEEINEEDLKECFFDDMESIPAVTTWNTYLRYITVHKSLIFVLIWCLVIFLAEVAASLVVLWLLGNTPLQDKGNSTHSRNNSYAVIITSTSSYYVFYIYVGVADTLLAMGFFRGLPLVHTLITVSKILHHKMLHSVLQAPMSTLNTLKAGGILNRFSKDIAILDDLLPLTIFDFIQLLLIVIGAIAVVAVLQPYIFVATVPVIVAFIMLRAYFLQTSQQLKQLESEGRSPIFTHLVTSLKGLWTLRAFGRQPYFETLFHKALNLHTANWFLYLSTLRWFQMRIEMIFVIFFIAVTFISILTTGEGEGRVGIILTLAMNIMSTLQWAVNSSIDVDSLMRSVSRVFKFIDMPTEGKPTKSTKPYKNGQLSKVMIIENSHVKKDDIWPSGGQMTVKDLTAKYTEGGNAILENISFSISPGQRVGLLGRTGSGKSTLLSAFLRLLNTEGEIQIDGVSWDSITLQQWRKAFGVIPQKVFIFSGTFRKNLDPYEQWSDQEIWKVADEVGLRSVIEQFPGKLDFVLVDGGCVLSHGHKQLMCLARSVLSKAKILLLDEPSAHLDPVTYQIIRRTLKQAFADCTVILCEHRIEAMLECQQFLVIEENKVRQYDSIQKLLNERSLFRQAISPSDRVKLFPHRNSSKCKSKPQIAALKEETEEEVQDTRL

For `NC(=O)c1ccc(-n2cnc3c(Cl)nc(Cl)nc32)cc1` [Compound 79, 4-(2,6-dichloro-9H-purin-9-yl)benzamide], which Emax is on record?
The Emax was 10 to 35%.

Which Emax does the source give for `Clc1nc(Cl)c2ncn(-c3ccccc3)c2n1` [Compound 80, 2,6-dichloro-9-phenyl-9H-purine] here?
Its Emax is 10 to 35%.

For `C[C@H](Nc1nc(Cl)nc2c1ncn2-c1ccccc1)C(=O)OC(C)(C)C` [Compound 81, (S)-tert-butyl 2-((2-chloro-9-phenyl-9H-purin-6-yl)amino)propanoate], which Emax is on record?
The Emax was 10 to 35%.

Which Emax does the source give for `C[C@H](Nc1nc(NCCCc2ccccc2)nc2c1ncn2-c1ccccc1)C(=O)OC(C)(C)C` [Compound 82, (S)-tert-butyl 2-((9-phenyl-2-((3-phenylpropyl)amino)-9H-purin-6-yl)amino)propanoate] here?
Its Emax is 10 to 35%.

With `C[C@H](Nc1nc(NCCCc2ccccc2)nc2c1ncn2-c1ccccc1)C(=O)O` [Compound 83, (S)-2-((9-phenyl-2-((3-phenylpropyl)amino)-9H-purin-6-yl)amino)propanoic acid] as the compound, how does the Emax read?
The Emax was 10 to 35%.

Which Emax does the source give for `COc1ccc(CCNc2nc(NCc3ccc(OC)cc3)c3ncn(-c4ccccc4)c3n2)cc1` [Compound 85, N6-(4-methoxybenzyl)-N2-(4-methoxyphenethyl)-9-phenyl-9H-purine-2,6-diamine] here?
The Emax was 10 to 35%.

With `CC(=O)c1ccc(-n2cnc3c(Cl)nc(Cl)nc32)cc1` [Compound 86, 1-(4-(2,6-dichloro-9H-purin-9-yl)phenyl)ethanone] as the compound, how does the Emax read?
Its Emax is 10 to 35%.

With `COc1ccc(CNc2nc(NCc3ccc(OC)cc3)c3nc[nH]c3n2)cc1` [Compound 88, N2,N6-bis(4-methoxybenzyl)-9H-purine-2,6-diamine] as the compound, how does the Emax read?
The Emax was 10 to 35%.

With `COc1ccc(CNc2nc(Cl)nc3c2ncn3Cc2ccc(C(N)=O)cc2)cc1` [Compound 89, 4-((2-chloro-6-((4-methoxybenzyl)amino)-9H-purin-9-yl)methyl)benzamide] as the compound, how does the Emax read?
Its Emax is 10 to 35%.

How did the Emax turn out when `COC(=O)c1ccc(-n2cnc3c(Cl)nc(Cl)nc32)cc1` [Compound 90, methyl 4-(2,6-dichloro-9H-purin-9-yl)benzoate] was run?
The Emax was 10 to 35%.

Which Emax does the source give for `COc1ccc(-n2cnc3c(O)nc(N)nc32)cc1OC` [Compound 91, 2-amino-9-(3,4-dimethoxyphenyl)-9H-purin-6-ol] here?
Its Emax is 10 to 35%.

With `Nc1nc(O)c2ncn(-c3ccccc3)c2n1` [Compound 92, 2-amino-9-phenyl-9H-purin-6-ol] as the compound, how does the Emax read?
The Emax was 10 to 35%.

For `NC(=O)c1ccc(Cn2cnc3c(Cl)nc(Cl)nc32)cc1` [Compound 93, 4-((2,6-dichloro-9H-purin-9-yl)methyl)benzamide], which Emax is on record?
The Emax was 10 to 35%.

Which Emax does the source give for `Clc1nc(Cl)c2ncn(-c3cccnc3)c2n1` [Compound 94, 2,6-dichloro-9-(pyridin-3-yl)-9H-purine] here?
The Emax was 10 to 35%.

Which Emax does the source give for `NC(=O)c1cccc(-n2cnc3c(Cl)nc(Cl)nc32)c1` [Compound 95, 3-(2,6-dichloro-9H-purin-9-yl)benzamide] here?
The Emax was 10 to 35%.

`NC(=O)c1ccc(Nc2cc(O)nc(O)n2)cc1` [Compound 96, 4-((2,6-dihydroxypyrimidin-4-yl)amino)benzamide] was tested. Which Emax did it give?
Its Emax is 10 to 35%.

With `COc1ccc(CNc2nc(Cl)nc3c2ncn3C2CCCCO2)cc1` (stereo not shown) [Compound 97, 2-chloro-N-(4-methoxybenzyl)-9-(tetrahydro-2H-pyran-2-yl)-9H-purin-6-amine] as the compound, how does the Emax read?
Its Emax is 10 to 35%.

With `COc1ccc(CNc2nc(OCCc3ccccc3)nc3c2ncn3C2CCCCO2)cc1` (stereo not shown) [Compound 98, N-(4-methoxybenzyl)-2-phenethoxy-9-(tetrahydro-2H-pyran-2-yl)-9H-purin-6-amine] as the compound, how does the Emax read?
The Emax was 10 to 35%.

For `Nc1nc(Cl)c(NC=O)c(Cl)n1` [Compound 101, N-(2-amino-4,6-dichloropyrimidin-5-yl)formamide], which Emax is on record?
The Emax was 35 to 60%.

`Nc1ncnc(N)c1N` [Compound 102, pyrimidine-4,5,6-triamine] was tested. Which Emax did it give?
The Emax was at least 60%.

With `O=[N+]([O-])c1c(O)nc(O)nc1Cl` [Compound 103, 6-chloro-5-nitropyrimidine-2,4-diol] as the compound, how does the Emax read?
The Emax was 10 to 35%.

For `Nc1nc(NCCc2ccc(F)cc2)nc2[nH]cnc12` [Compound 104, N2-(4-fluorophenethyl)-9H-purine-2,6-diamine], which Emax is on record?
Its Emax is 35 to 60%.

`NC(=O)c1ccc(Nc2ccncc2[N+](=O)[O-])cc1` [Compound 105, 4-((3-nitropyridin-4-yl)amino)benzamide] was tested. Which Emax did it give?
The Emax was at least 60%.

For `NC(=O)c1ccc(Nc2ncnc(Cl)c2[N+](=O)[O-])cc1` [Compound 106, 4-((6-chloro-5-nitropyrimidin-4-yl)amino)benzamide], which Emax is on record?
Its Emax is 10 to 35%.

Which Emax does the source give for `NC(=O)c1ccc(Nc2ncncc2N)cc1` [Compound 107, 4-((5-aminopyrimidin-4-yl)amino)benzamide] here?
Its Emax is at least 60%.

With `NC(=O)c1ccc(Sc2ncnc(Cl)c2N)cc1` [Compound 108, 4-((5-amino-6-chloropyrimidin-4-yl)thio)benzamide] as the compound, how does the Emax read?
The Emax was 10 to 35%.

For `Cc1ccc(Nc2ncnc(Cl)c2N)cc1` [Compound 109, 6-chloro-N4-(p-tolyl)pyrimidine-4,5-diamine], which Emax is on record?
Its Emax is 35 to 60%.

`Nc1c(Cl)ncnc1Nc1ccc(F)cc1` [Compound 110, 6-chloro-N4-(4-fluorophenyl)pyrimidine-4,5-diamine] was tested. Which Emax did it give?
Its Emax is 10 to 35%.

With `Nc1cncnc1Cl` [Compound 111, 4-chloropyrimidin-5-amine] as the compound, how does the Emax read?
Its Emax is 35 to 60%.

`NC(=O)c1ccc(-n2ccc3c(Cl)ncnc32)cc1` [Compound 112, 4-(4-chloro-7H-pyrrolo[2,3-d]pyrimidin-7-yl)benzamide] was tested. Which Emax did it give?
Its Emax is 10 to 35%.

With `NC(=O)c1ccc(-c2nc(N)nc3[nH]cnc23)cc1` [Compound 113, 4-(2-amino-9H-purin-6-yl)benzamide] as the compound, how does the Emax read?
Its Emax is at least 60%.

How did the Emax turn out when `NC(=O)c1ccc(Nc2c[n+]([O-])ccc2[N+](=O)[O-])cc1` [Compound 114, 3-((4-carbamoylphenyl)amino)-4-nitropyridine 1-oxide] was run?
The Emax was at least 60%.

`NC(=O)c1ccc(Nc2ncccc2N)cc1` [Compound 115, 2-((4-carbamoylphenyl)amino)-pyridin-3-aminium chloride] was tested. Which Emax did it give?
Its Emax is at least 60%.

`NC(=O)c1ccc(-n2cnc3cncnc32)cc1` [Compound 116, 4-(9H-purin-9-yl)benzamide] was tested. Which Emax did it give?
Its Emax is 35 to 60%.

How did the Emax turn out when `Nc1nc(Nc2ccc(CO)cc2)c2ncn(-c3ccc(CO)cc3)c2n1` [Compound 117, (4-(2-amino-6-((4-(hydroxymethyl)phenyl)-amino)-9H-purin-9-yl)phenyl)methanol] was run?
Its Emax is 35 to 60%.

With `C[C@H](Nc1nc(Cl)nc2c1ncn2-c1ccccc1)C(=O)O` [Compound 118, (S)-2-((2-chloro-9-phenyl-9H-purin-6-yl)amino)propanoic acid] as the compound, how does the Emax read?
Its Emax is at least 60%.

How did the Emax turn out when `NC(=O)c1ccc(Cn2cnc3c(N[C@@H](CO)C(=O)O)nc(Cl)nc32)cc1` [Compound 119, (S)-2-((9-(4-carbamoylbenzyl)-2-chloro-9H-purin-6-yl)amino)-3-hydroxypropanoic acid] was run?
Its Emax is 35 to 60%.

With `CC(=O)Nc1ccc(Nc2ncnc(Cl)c2[N+](=O)[O-])cc1` [Compound 120, N-(4-((6-chloro-5-nitropyrimidin-4-yl)amino)phenyl)acetamide] as the compound, how does the Emax read?
The Emax was 35 to 60%.

For `C[C@H](Nc1nc(Cl)nc2c1ncn2Cc1ccc(C(N)=O)cc1)C(=O)OC(C)(C)C` [Compound 121, (S)-tert-butyl 2-((9-(4-carbamoylbenzyl)-2-chloro-9H-purin-6-yl)amino)propanoate], which Emax is on record?
The Emax was 10 to 35%.

For `NC(=O)c1ccc(-n2c(=O)[nH]c3c(Cl)ncnc32)cc1` [Compound 122, 4-(6-chloro-8-oxo-7H-purin-9(8H)-yl)benzamide], which Emax is on record?
Its Emax is 10 to 35%.
